Test results published in ChEMBL document CHEMBL5724914, “Linking interpersonal differences in gut microbiota composition and drug biotransformation activity” (2024).

Experiments:
[1] = (§1) The drug is tested on Z-012 corresponding to metagenome with ENA study accession number: PRJEB37062 and ENA sample accession number: ERS12561812 for biotransformation under anaerobic condition. The drug concentrations were measured over 9 timepoints collected between 0 and 24 hours of incubation by liquid-chromatography-coupled mass spectrometry (LC–MS); settings: 2 µM
[2] = (§2) The drug is tested on WLS-006 corresponding to human gut metagenome with ENA study accession number: PRJEB37062 and ENA sample accession number: ERS12561741 for biotransformation under anaerobic condition. The drug concentrations were measured over 9 timepoints collected between 0 and 24 hours of incubation by liquid-chromatography-coupled mass spectrometry (LC–MS); settings: 2 µM
[3] = human gut metagenome, 24 h, 2 µM
[4] = as §2, with “WLS-010” for “WLS-006”, “ERS12561743” for “ERS12561741”; settings: 2 µM
[5] = as §2, with “WLS-007” for “WLS-006”, “ERS12561742” for “ERS12561741”; settings: 2 µM
[6] = as §1, with “Z-008” for “Z-012”, “ERS12561808” for “ERS12561812”; settings: 2 µM
[7] = as §2, with “WLS-098” for “WLS-006”, “ERS12561754” for “ERS12561741”; settings: 2 µM
[8] = human gut metagenome, 24 h, 2 µM; remark: listed apart in the source
[9] = human gut metagenome, 24 h, 2 µM; remark: listed apart in the source
Note: call rule not given here.

SMILES	Bacterial Biotransformation [1]	Bacterial Biotransformation [2]	Bacterial Biotransformation [3]	Bacterial Biotransformation [4]	Bacterial Biotransformation [5]	Bacterial Biotransformation [6]	Bacterial Biotransformation [7]	Bacterial Biotransformation [8]	Bacterial Biotransformation [9]
CN1CCC(OC(c2ccccc2)c2ccccc2)CC1	Compound NOT metabolized	Compound NOT metabolized	Compound metabolized	Compound NOT metabolized	Compound NOT metabolized	Compound NOT metabolized	Compound metabolized	Compound NOT metabolized	Compound NOT metabolized
CC1=C(CC(=O)O)c2cc(F)ccc2/C1=C\c1ccc([S+](C)[O-])cc1 (centres undefined)	Compound NOT metabolized	Compound metabolized	Compound metabolized	Compound metabolized	Compound metabolized	Compound NOT metabolized	Compound metabolized	Compound metabolized	Compound metabolized
CCOC(=O)[C@H](CCc1ccccc1)N[C@@H](C)C(=O)N1Cc2ccccc2C[C@H]1C(=O)O	Compound NOT metabolized	Compound metabolized	Compound metabolized	Compound metabolized	Compound metabolized	Compound NOT metabolized	Compound metabolized	Compound metabolized	Compound metabolized
CN(C)CCc1c[nH]c2ccc(CS(=O)(=O)N3CCCC3)cc12 [ALMOTRIPTAN]	–	Compound NOT metabolized	Compound NOT metabolized	Compound NOT metabolized	Compound NOT metabolized	–	Compound metabolized	Compound NOT metabolized	Compound NOT metabolized
CCN1CCCC1CNC(=O)c1cc(S(=O)(=O)CC)c(N)cc1OC (centres undefined) [AMISULPRIDE]	Compound NOT metabolized	Compound NOT metabolized	Compound NOT metabolized	Compound NOT metabolized	Compound NOT metabolized	Compound NOT metabolized	Compound metabolized	Compound NOT metabolized	Compound NOT metabolized
CC(C)NCC(O)COc1ccc(CC(N)=O)cc1 (centres undefined) [ATENOLOL]	Compound NOT metabolized	Compound NOT metabolized	Compound NOT metabolized	Compound NOT metabolized	Compound NOT metabolized	Compound NOT metabolized	Compound metabolized	Compound NOT metabolized	Compound NOT metabolized
CCCCC(=O)O[C@]1(C(=O)CO)[C@@H](C)C[C@H]2[C@@H]3CCC4=CC(=O)C=C[C@]4(C)[C@@]3(F)[C@@H](O)C[C@@]21C [BETAMETHASONE VALERATE]	–	Compound metabolized	Compound metabolized	Compound metabolized	Compound metabolized	–	Compound NOT metabolized	Compound NOT metabolized	Compound metabolized
CC(=O)Oc1ccc(C(c2ccc(OC(C)=O)cc2)c2ccccn2)cc1 [BISACODYL]	–	Compound metabolized	Compound metabolized	Compound metabolized	Compound metabolized	–	Compound metabolized	Compound metabolized	Compound metabolized
Cc1nc(Nc2ncc(C(=O)Nc3c(C)cccc3Cl)s2)cc(N2CCN(CCO)CC2)n1 [DASATINIB ANHYDROUS]	–	Compound metabolized	Compound NOT metabolized	Compound metabolized	Compound NOT metabolized	–	Compound metabolized	Compound NOT metabolized	Compound NOT metabolized
CC(=O)OCC(=O)[C@@]1(OC(C)=O)[C@@H](C)C[C@H]2[C@@H]3C[C@H](F)C4=CC(=O)C=C[C@]4(C)[C@@]3(F)[C@@H](O)C[C@@]21C [DIFLORASONE DIACETATE]	Compound metabolized	Compound metabolized	Compound metabolized	Compound metabolized	Compound metabolized	Compound metabolized	Compound metabolized	Compound metabolized	Compound metabolized
CN(C)CCC=C1c2ccccc2COc2ccccc21 [DOXEPIN]	Compound NOT metabolized	Compound NOT metabolized	Compound metabolized	Compound NOT metabolized	Compound metabolized	Compound NOT metabolized	Compound metabolized	Compound NOT metabolized	Compound NOT metabolized
C[C@]12CCC(=O)C=C1[C@@H]1C[C@@H]1[C@H]1[C@@H]3[C@@H]4C[C@@H]4[C@@]4(CCC(=O)O4)[C@@]3(C)CC[C@@H]12 [DROSPIRENONE]	Compound NOT metabolized	Compound metabolized	Compound metabolized	Compound metabolized	Compound metabolized	Compound metabolized	Compound NOT metabolized	Compound metabolized	Compound metabolized
CNCC[C@H](Oc1cccc2ccccc12)c1cccs1 [DULOXETINE]	–	Compound metabolized	Compound NOT metabolized	Compound NOT metabolized	Compound metabolized	–	Compound metabolized	Compound NOT metabolized	Compound NOT metabolized
COCCCC/C(=N\OCCN)c1ccc(C(F)(F)F)cc1.O=C(O)/C=C\C(=O)O [FLUVOXAMINE MALEATE]	–	Compound metabolized	Compound NOT metabolized	Compound NOT metabolized	Compound NOT metabolized	–	Compound NOT metabolized	Compound NOT metabolized	Compound NOT metabolized
CC#CCn1c(N2CCC[C@@H](N)C2)nc2c1c(=O)n(Cc1nc(C)c3ccccc3n1)c(=O)n2C [LINAGLIPTIN]	–	–	–	Compound NOT metabolized	Compound NOT metabolized	–	Compound NOT metabolized	Compound NOT metabolized	Compound NOT metabolized
CN1CCN(C2=Nc3ccccc3Oc3ccc(Cl)cc32)CC1.O=C(O)CCC(=O)O [LOXAPINE SUCCINATE]	–	Compound NOT metabolized	Compound NOT metabolized	Compound NOT metabolized	Compound NOT metabolized	–	Compound NOT metabolized	Compound NOT metabolized	Compound NOT metabolized
CCOC(=O)C1=C(C)NC(C)=C(C(=O)OC)C1c1cccc([N+](=O)[O-])c1 (centres undefined) [NITRENDIPINE]	–	Compound metabolized	Compound metabolized	Compound metabolized	Compound NOT metabolized	–	Compound metabolized	Compound metabolized	Compound metabolized
N#Cc1ccc2c(c1)N(CCCN1CCC(O)CC1)c1ccccc1S2 [PERICIAZINE]	–	Compound NOT metabolized	Compound metabolized	Compound NOT metabolized	Compound NOT metabolized	–	Compound metabolized	Compound NOT metabolized	Compound NOT metabolized
O=C([O-])C[C@H](O)C[C@H](O)/C=C/c1c(C2CC2)nc2ccccc2c1-c1ccc(F)cc1.O=C([O-])C[C@H](O)C[C@H](O)/C=C/c1c(C2CC2)nc2ccccc2c1-c1ccc(F)cc1.[Ca+2] [PITAVASTATIN CALCIUM]	–	Compound metabolized	Compound metabolized	Compound metabolized	Compound metabolized	–	Compound metabolized	Compound metabolized	Compound metabolized
CNNCc1ccc(C(=O)NC(C)C)cc1 [PROCARBAZINE]	Compound metabolized	–	Compound NOT metabolized	–	–	Compound NOT metabolized	Compound metabolized	Compound NOT metabolized	Compound metabolized
CN(C/C=C/C#CC(C)(C)C)Cc1cccc2ccccc12 [TERBINAFINE]	Compound NOT metabolized	–	Compound NOT metabolized	–	–	Compound NOT metabolized	Compound NOT metabolized	Compound NOT metabolized	Compound NOT metabolized
